# US20250152585A1, “PHARMACEUTICAL COMPOUND” (Duke Street Bio Limited, priority 2022, published 2025)
# Read-outs that look alike come from different tables or passages of the source.
# Assays:
# [1] = target: T1, full length N-terminally FLAG-tagged PARP1 (Homo sapiens, UniProt P09874); test: PARP1 probe displacement HTRF assay; conditions: probe displacement HTRF; for Selectivity: PARP1 over PARP2, ratio Kd (PARP2)/Kd (PARP1); for Kd: binned Kd
# [2] = target: T1, full length N-terminally FLAG-tagged PARP1; test: PARP1 biochemical DELFIA assay (auto-PARylation); parameters: recombinant full length human N-terminally FLAG-tagged PARP1; conditions: binned IC50, biochemical auto-PARylation assay
# [3] = target: T2, N-terminally FLAG-tagged PARP2 (amino acids 1-583) (Homo sapiens, UniProt Q9UGN5); test: PARP2 probe displacement HTRF assay; assay type: binding; conditions: binned Kd, probe displacement HTRF
# T2 construct: N-terminally FLAG-tagged PARP2 (amino acids 1-583)
# Protocol: Data analysis was performed identical as for PARP1.
# T2 sequence (Q9UGN5 whole entry, the tested form may be a part): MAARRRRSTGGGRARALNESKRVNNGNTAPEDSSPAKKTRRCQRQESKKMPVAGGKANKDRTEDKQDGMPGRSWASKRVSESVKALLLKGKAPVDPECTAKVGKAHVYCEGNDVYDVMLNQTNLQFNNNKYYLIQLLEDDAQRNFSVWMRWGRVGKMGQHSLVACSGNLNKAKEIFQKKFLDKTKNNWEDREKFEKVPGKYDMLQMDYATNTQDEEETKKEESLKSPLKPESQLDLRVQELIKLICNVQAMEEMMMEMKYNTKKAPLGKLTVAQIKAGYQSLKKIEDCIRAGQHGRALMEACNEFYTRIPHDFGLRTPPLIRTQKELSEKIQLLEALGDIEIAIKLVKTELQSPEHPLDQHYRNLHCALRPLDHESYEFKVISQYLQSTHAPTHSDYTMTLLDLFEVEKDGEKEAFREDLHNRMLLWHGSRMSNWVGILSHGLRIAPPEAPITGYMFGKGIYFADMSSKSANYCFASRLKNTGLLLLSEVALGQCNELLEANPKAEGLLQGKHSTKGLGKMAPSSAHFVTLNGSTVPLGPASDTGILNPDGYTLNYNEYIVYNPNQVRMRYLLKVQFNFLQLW
# T1 sequence (P09874 whole entry): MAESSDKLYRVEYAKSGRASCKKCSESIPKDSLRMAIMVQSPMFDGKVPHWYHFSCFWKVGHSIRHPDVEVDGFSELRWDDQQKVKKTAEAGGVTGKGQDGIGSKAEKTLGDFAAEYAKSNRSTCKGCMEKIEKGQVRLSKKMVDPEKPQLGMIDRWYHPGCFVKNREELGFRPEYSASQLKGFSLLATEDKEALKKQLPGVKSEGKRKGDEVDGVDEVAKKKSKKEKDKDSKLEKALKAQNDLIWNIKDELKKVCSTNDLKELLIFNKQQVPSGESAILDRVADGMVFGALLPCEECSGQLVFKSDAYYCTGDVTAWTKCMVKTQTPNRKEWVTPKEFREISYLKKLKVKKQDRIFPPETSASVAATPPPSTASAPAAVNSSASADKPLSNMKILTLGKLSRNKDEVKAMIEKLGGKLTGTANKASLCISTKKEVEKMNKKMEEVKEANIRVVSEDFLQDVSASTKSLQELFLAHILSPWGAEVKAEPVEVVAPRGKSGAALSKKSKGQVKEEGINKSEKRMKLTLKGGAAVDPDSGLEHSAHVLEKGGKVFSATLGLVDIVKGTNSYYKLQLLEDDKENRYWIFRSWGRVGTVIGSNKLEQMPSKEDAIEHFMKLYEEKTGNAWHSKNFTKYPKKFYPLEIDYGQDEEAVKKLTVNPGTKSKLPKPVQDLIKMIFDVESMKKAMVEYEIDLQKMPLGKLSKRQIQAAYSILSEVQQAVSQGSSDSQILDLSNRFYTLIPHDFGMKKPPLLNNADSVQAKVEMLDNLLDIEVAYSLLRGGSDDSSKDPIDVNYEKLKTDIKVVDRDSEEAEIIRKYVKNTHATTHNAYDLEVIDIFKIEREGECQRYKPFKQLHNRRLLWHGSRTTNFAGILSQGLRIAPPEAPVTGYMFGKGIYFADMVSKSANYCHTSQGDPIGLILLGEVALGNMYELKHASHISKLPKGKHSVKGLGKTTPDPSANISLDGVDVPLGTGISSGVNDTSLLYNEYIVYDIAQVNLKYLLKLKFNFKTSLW
SMILES,Selectivity [1],Kd ([1]; read-out: PARP1 HTRF) [nM],IC50 [2] [nM],Kd [3] [nM],Kd ([1]; PARP1 HTRF) [nM]
"CNC(=O)c1ccc(N2CCC(N3CCC(c4cc5cccc(F)c5c(=O)[nH]4)C3)CC2)cc1F (single isomer, unassigned) [Compound 281b]",− (− indicates a value of less than 10),100 to 1000,100 to 1000,100 to 1000,
"CNC(=O)c1ccc(N2CCC(N3CCC(c4nc5c(c(=O)[nH]4)CCC5)C3)CC2)cn1 (single isomer, unassigned) [Compound 283a]",+ (+ indicates a value of 10 to less than 50),100 to 1000,100 to 1000,> 10000,
"CNC(=O)c1ccc(N2CCC(N3CCC(c4nc5c(c(=O)[nH]4)CCC5)C3)CC2)cn1 (single isomer, unassigned) [Compound 283b]",+++ (+++ indicate a value of at least 100),< 10,< 10,1000 to 10000,
"CCc1ccc(C2CCN(C3CCN(c4ccc(C(=O)NCC(F)(F)F)nc4F)CC3)C2)[nH]c1=O (single isomer, unassigned) [Compound 285b]",+++ (+++ indicate a value of at least 100),< 10,< 10,> 10000,
"CNC(=O)c1ccc(N2CCC(N3CCC(c4cnc(CC(F)(F)F)c(=O)[nH]4)C3)CC2)cn1 (single isomer, unassigned) [Compound 287a]",++ (++ indicates a value of 50 to less than 100),10 to 100,10 to 100,> 10000,
"CNC(=O)c1ccc(N2CCC(N3CCC(c4cnc(CC(F)(F)F)c(=O)[nH]4)C3)CC2)cn1 (single isomer, unassigned) [Compound 287b]",− (− indicates a value of less than 10),1000 to 10000,1000 to 10000,> 10000,
"CC(=O)Nc1ccc(N2CCC(N3CCC(c4cc5ccccc5c(=O)[nH]4)C3)CC2)cc1 (single isomer, unassigned) [Compound 289a]",− (− indicates a value of less than 10),100 to 1000,100 to 1000,1000 to 10000,
"CC(=O)Nc1ccc(N2CCC(N3CCC(c4cc5ccccc5c(=O)[nH]4)C3)CC2)cc1 (single isomer, unassigned) [Compound 289b]",+ (+ indicates a value of 10 to less than 50),10 to 100,< 10,100 to 1000,
"CS(=O)(=O)Nc1ccc(N2CCC(N3CCC(c4nc5ccccc5c(=O)[nH]4)C3)CC2)cn1 (single isomer, unassigned) [Compound 291a]",+ (+ indicates a value of 10 to less than 50),100 to 1000,10 to 100,1000 to 10000,
"CS(=O)(=O)Nc1ccc(N2CCC(N3CCC(c4nc5ccccc5c(=O)[nH]4)C3)CC2)cn1 (single isomer, unassigned) [Compound 291b]",− (− indicates a value of less than 10),100 to 1000,100 to 1000,1000 to 10000,
"CNC(=O)c1ccc(N2CCC(N3CCC(c4nc5c(C(F)(F)F)c[nH]c5c(=O)[nH]4)C3)CC2)cn1 (single isomer, unassigned) [Compound 293a]",− (− indicates a value of less than 10),> 10000,> 10000,> 10000,
"CCc1ccc(C2CCN(C3CCN(c4cnc(C(=O)NC)cc4C(F)(F)F)CC3)C2)[nH]c1=O (single isomer, unassigned) [Compound 298a]",− (− indicates a value of less than 10),1000 to 10000,1000 to 10000,> 10000,
"CCc1ccc(C2CCN(C3CCN(c4cnc(C(=O)NC)cc4C(F)(F)F)CC3)C2)[nH]c1=O (single isomer, unassigned) [Compound 298b]",+++ (+++ indicate a value of at least 100),10 to 100,10 to 100,1000 to 10000,
"CC(=O)Nc1ccc(N2CCC(N3CCC(c4cc5ccccc5c(=O)[nH]4)C3)CC2)cn1 (single isomer, unassigned) [Compound 306a]",+ (+ indicates a value of 10 to less than 50),100 to 1000,100 to 1000,1000 to 10000,
"CC(=O)Nc1ccc(N2CCC(N3CCC(c4cc5ccccc5c(=O)[nH]4)C3)CC2)cn1 (single isomer, unassigned) [Compound 306b]",+++ (+++ indicate a value of at least 100),< 10,< 10,100 to 1000,
"CNC(=O)c1cc(C(F)(F)F)c(N2CCC(N3CCC(c4cc5cccc(F)c5c(=O)[nH]4)C3)CC2)cn1 (single isomer, unassigned) [Compound 308a]",+ (+ indicates a value of 10 to less than 50),100 to 1000,100 to 1000,1000 to 10000,

SMILES,Selectivity [1],Kd ([1]; read-out: PARP1 HTRF) [nM],IC50 [2] [nM],Kd [3] [nM],Kd ([1]; PARP1 HTRF) [nM]
"CNC(=O)c1cc(C(F)(F)F)c(N2CCC(N3CCC(c4cc5cccc(F)c5c(=O)[nH]4)C3)CC2)cn1 (single isomer, unassigned) [Compound 308b]",+++ (+++ indicate a value of at least 100),< 10,< 10,100 to 1000,
"CNC(=O)c1ccc(N2CCC(N3CCC(c4cc5c(c(=O)[nH]4)CCC(=O)N5)C3)CC2)cn1 (single isomer, unassigned) [Compound 309a, 5-(4-(3-(2,5-dioxo-1,2,3,4,5,6-hexahydro-1,6-naphthyridin-7-yl)pyrrolidin-1-yl)piperidin-1-yl)-N-methylpicolinamide]",+++ (+++ indicate a value of at least 100),,< 10,> 10000,< 10
"CNC(=O)c1ccc(N2CCC(N3CCC(c4cc5c(c(=O)[nH]4)CCC(=O)N5)C3)CC2)cn1 (single isomer, unassigned) [Compound 309b, 5-(4-(3-(2,5-dioxo-1,2,3,4,5,6-hexahydro-1,6-naphthyridin-7-yl)pyrrolidin-1-yl)piperidin-1-yl)-N-methylpicolinamide]",++ (++ indicates a value of 50 to less than 100),,10 to 100,> 10000,
"CNC(=O)c1ccc(N2CCC(N3CCC(c4ccc(CC5CC5)c(=O)[nH]4)C3)CC2)c(F)n1 (single isomer, unassigned) [Compound 313a]",+++ (+++ indicate a value of at least 100),10 to 100,10 to 100,> 10000,
"N#Cc1ccc(N2CCC(N3CCC(c4cc5cccc(F)c5c(=O)[nH]4)C3)CC2)cc1 (single isomer, unassigned) [Compound 314a]",+ (+ indicates a value of 10 to less than 50),< 10,< 10,100 to 1000,
"CNC(=O)c1ccc(N2CCC(N3CCC(c4cc5ncc(F)cc5c(=O)[nH]4)C3)CC2)cn1 (single isomer, unassigned) [Compound 315a]",+++ (+++ indicate a value of at least 100),< 10,< 10,100 to 1000,
"CNC(=O)c1ccc(N2CCC(N3CCC(c4cc5ncc(F)cc5c(=O)[nH]4)C3)CC2)cn1 (single isomer, unassigned) [Compound 315b]",+++ (+++ indicate a value of at least 100),< 10,< 10,100 to 1000,
"N#Cc1ccc(N2CCC(N3CCC(c4cc5cccc(F)c5c(=O)[nH]4)C3)CC2)cn1 (single isomer, unassigned) [Compound 316b]",+ (+ indicates a value of 10 to less than 50),10 to 100,10 to 100,100 to 1000,
"CCc1ccc(C2CCN(C3CCN(c4ccc(C#N)cc4)CC3)C2)[nH]c1=O (single isomer, unassigned) [Compound 317a]",− (− indicates a value of less than 10),100 to 1000,10 to 100,1000 to 10000,
"CCc1ccc(C2CCN(C3CCN(c4ccc(C#N)cc4)CC3)C2)[nH]c1=O (single isomer, unassigned) [Compound 317b]",+++ (+++ indicate a value of at least 100),< 10,< 10,100 to 1000,
"CCc1ccc(C2CCN(C3CCN(c4ccc(C(=O)NCCF)nc4F)CC3)C2)[nH]c1=O (single isomer, unassigned) [Compound 322a]",+++ (+++ indicate a value of at least 100),< 10,< 10,> 10000,
"CNC(=O)c1ccc(N2CCC(N3CCC(c4cc5ncc(F)cc5c(=O)[nH]4)C3)CC2)c(F)n1 (single isomer, unassigned) [Compound 324a]",+++ (+++ indicate a value of at least 100),< 10,< 10,> 10000,
"CNC(=O)c1ccc(N2CCC(N3CCC(c4cc5ncc(F)cc5c(=O)[nH]4)C3)CC2)c(F)n1 (single isomer, unassigned) [Compound 324b]",+++ (+++ indicate a value of at least 100),< 10,< 10,100 to 1000,
"CCc1ccc(C2CCN(C3CCN(c4ccc(C#N)nc4)CC3)C2)[nH]c1=O (single isomer, unassigned) [Compound 326a]",+ (+ indicates a value of 10 to less than 50),100 to 1000,100 to 1000,1000 to 10000,
"CCc1ccc(C2CCN(C3CCN(c4ccc(C#N)nc4)CC3)C2)[nH]c1=O (single isomer, unassigned) [Compound 326b]",+++ (+++ indicate a value of at least 100),< 10,10 to 100,1000 to 10000,
"CNC(=O)c1ccc(N2CCC(N3CCCC(O)(c4nc5ccccc5c(=O)[nH]4)C3)CC2)cn1 (single isomer, unassigned) [Compound 327a]",+ (+ indicates a value of 10 to less than 50),100 to 1000,100 to 1000,> 10000,
